Source: US7691844B2, “Nonpeptide substituted spirobenzoazepines as vasopressin antagonists” (Ortho-McNeil Pharmaceutical, Inc., priority 2000, dated 2010)

How the values were obtained:
V1a [1] = target: T1, V1a (Homo sapiens, UniProt P37288); test: V1a vasopressin receptor functional activity (inhibition of vasopressin-induced intracellular calcium, FLIPR, V1a-HEK cells); format: cell-based; parameters: expressed in transfected cells; details: HEK-293 cells transfected with human V1a receptor; vasopressin challenge
T1 sequence (P37288 whole entry): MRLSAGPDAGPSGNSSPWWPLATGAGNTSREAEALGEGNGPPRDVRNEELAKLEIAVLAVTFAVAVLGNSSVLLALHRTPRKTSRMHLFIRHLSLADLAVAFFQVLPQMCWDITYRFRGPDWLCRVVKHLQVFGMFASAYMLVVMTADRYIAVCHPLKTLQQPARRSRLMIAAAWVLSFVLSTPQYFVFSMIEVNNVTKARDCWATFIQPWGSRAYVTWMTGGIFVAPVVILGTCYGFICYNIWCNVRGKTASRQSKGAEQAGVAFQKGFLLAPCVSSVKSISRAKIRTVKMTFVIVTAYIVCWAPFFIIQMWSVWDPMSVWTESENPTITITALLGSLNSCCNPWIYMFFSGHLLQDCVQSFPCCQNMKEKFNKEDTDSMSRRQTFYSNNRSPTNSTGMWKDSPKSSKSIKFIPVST
Protocol: [formula] (B) V1a Vasopressin Receptor Functional Activity
The V1a receptor is a G-protein coupled receptor, which upon activation triggers an increase in intracellular calcium mobilization. To evaluate compounds for their functional V1a receptor activity, HEK-293 cells were transfected with the human V1a receptor (V1a-HEK cells). HEK-293 cells were grown in DMEM (Dulbecco's modified Eagle Media) supplemented with 10% FBS and glutamine. HEK-cells were passed biweekly by trypsinization and seeded into 96 well plates at 33,000 cells per well. HEK-293 cells were transfected with human V1a receptor DNA using DMRIE-C reagent from Life Technologies. Stable lines were generated by selecting cells grown in culture media containing geneticin. After growing in Packard Clear-View black 96 well plates for 4-6 days, V1a-HEK cells were loaded with the calcium-sensitive fluorescence dye, FLUO-3 AM. Changes in cell fluorescence were quantitated using FLIPR (Fluorometric Imaging Plate Reader; Molecular Devices, Sunnyvale, Calif.). Test compounds were first added to the cells and the resulting changes in fluorescence measured to detect receptor agonistic activity. Five minutes later the cells were challenged with vasopressin to test compounds for their antagonistic activity. Receptor antagonists inhibit the ability of vasopressin to stimulate increases in intracellular fluorescence. IC50's were calculated.

V1b = target: T2, V1b (Homo sapiens, UniProt P47901); test: In-vitro receptor binding assay (3H-arginine-8-vasopressin), V1b
T2 sequence (P47901 1-424): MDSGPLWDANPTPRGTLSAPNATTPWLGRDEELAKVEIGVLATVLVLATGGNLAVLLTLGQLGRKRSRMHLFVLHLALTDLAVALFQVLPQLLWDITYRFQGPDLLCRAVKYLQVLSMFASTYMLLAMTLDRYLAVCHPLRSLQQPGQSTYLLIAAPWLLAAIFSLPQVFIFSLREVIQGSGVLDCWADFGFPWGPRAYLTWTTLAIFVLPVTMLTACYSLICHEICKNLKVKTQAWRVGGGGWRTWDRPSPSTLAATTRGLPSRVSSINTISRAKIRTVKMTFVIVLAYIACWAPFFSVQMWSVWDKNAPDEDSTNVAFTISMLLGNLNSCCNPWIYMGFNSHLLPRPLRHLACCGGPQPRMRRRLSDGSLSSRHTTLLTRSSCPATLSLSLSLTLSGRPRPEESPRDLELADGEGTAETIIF
Protocol: (A) In-Vitro Binding Assay […] The reaction plates are allowed to sit at room temperature for one hour. The samples are filtered through Unifilter GF/C plates (presoaked in 0.3 polyethyleneimine). The plates are washed 5 times with cold physiological saline containing 0.05% Tween 20. After drying, the bottom of the filter plates are sealed and 0.025 ml of Microscint-20 is added to each filter. The top of the plate is sealed, and the plate is counted. Non-specific binding is determined by the addition of 1.25 μM […]-vasopressin in those wells. % Inh. is calculated as follows: […]

human V2 receptor = human V2 receptor (Homo sapiens, UniProt P30518); test: In-vitro receptor binding assay (3H-arginine-8-vasopressin), V2
Summary of the method: (§1)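 Radioligand is 3H-arginine-8-vasopressin, incubated with receptor for one hour at room temperature, then filtered on GF/C plates and counted by scintillation. Non-specific binding was defined with 1.25 μM vasopressin, and results are given as % inhibition.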

V1a [2] = target: T1, V1a; test: In-vitro receptor binding assay (3H-arginine-8-vasopressin), V1a
Summary of the method: as §1

[3] = @ 10 μM, read-out: Receptor Binding V1b (% Inh. @ concentration in μM)

Row | Molecule | IC50 (V1a [1]) [µM] | IC50 (human V2 receptor) [µM] | IC50 (V1a [2]) [µM] | inhibition at 10 µM (V1b; [3]) [%] | other results
1 | CN(C)CCNC(=O)C1=C[C@]2(CC1)CCN(C(=O)c1ccc(NC(=O)c3ccccc3-c3ccccc3)cc1)c1ccccc1C2 [Compound 20, (S)-4-(2-phenylbenzoyl-4-aminobenzoyl)-3′-(2-(N,N-dimethylaminoethylaminocarbonyl))-4-aza-[6,4]-spiro-[5,6]-benzoundec-2′-ene] | 0.002 | 0.016 | 0.003 |  | Receptor Binding V1b (% Inh. @ concentration in μM) (V1b; @ 10 μM): 13% @ 10
2 | CN(C)CCNC(=O)C1=CC2(CC1)CCN(C(=O)c1ccc(NC(=O)c3ccccc3-c3ccccc3)cc1)c1ccccc1C2 (single isomer, unassigned) [Compound 21] | 0.008 | 0.44 | 0.181 | 7 | 
3 | (R)-4-(2-fluorophenylbenzoyl-4-aminobenzoyl)-3′-(2-(N,N-dimethylaminoethylaminocarbonyl))-4-aza-[6,4]-spiro-[5,6]-benzoundec-2′-ene [Compound 23] |  |  |  |  | IC50 (V1b): 13.7 µM; Receptor Binding V2 (% Inh. @ concentration in μM) (human V2 receptor; @ 0.1 μM): 1% @ 0.1; Receptor Binding V1a (% Inh. @ concentration in μM) (V1a [2]; @ 0.1 μM): 15% @ 0.1
4 | O=C(NCCN1CCCC1)C1=CC2(CC1)CCN(C(=O)c1ccc(NC(=O)c3ccccc3F)cc1)c1ccccc1C2 (stereo not shown) [Compound 19] | 0.155 |  | 0.008 |  | Receptor Binding V1b (% Inh. @ concentration in μM) (V1b; @ 0.1 μM): 22% @ 0.1
5 | CN(C)CCNC(=O)C1=CC2(CC1)CCN(C(=O)c1ccc(NC(=O)c3ccccc3F)cc1)c1ccccc1C2 (stereo not shown) [Compound 16, 4-(2-Fluorobenzoyl-4-aminobenzoyl)-3′-[2-(N,N-dimethylaminoethylcarbonyl)]-4-aza-[6,4]-spiro-[5,6]-benzoundec-2′-ene] | 0.126 |  | 0.008 | 8 | inhibition at 0.1 µM (human V2 receptor; @ 0.1 μM, read-out: Receptor Binding V2 (% Inh. @ concentration in μM)): 17%

The remaining molecules from weak to strong by IC50 (V1a [2]), led by results:

Row | IC50 (V1a [1]) [µM] | IC50 (human V2 receptor) [µM] | IC50 (V1a [2]) [µM] | inhibition at 10 µM (V1b; [3]) [%] | Molecule | other results
6 | 0.004 | 0.011 | 0.005 | 12 | CN(C)CCNC(=O)C1=CC2(CC1)CCN(C(=O)c1ccc(NC(=O)c3ccccc3-c3ccccc3)cc1)c1ccccc1C2 (stereo not shown) [Compound 9, 4-(2-Phenylbenzoyl-4-aminobenzoyl)-3′-[2-(N,N-dimethylaminoethylcarbonyl)]-4-aza-[6,4]-spiro-[5,6]-benzoundec-2′-ene] | 
7 | 0.099 |  | 0.004 |  | O=C(NCCO)C1=CC2(CC1)CCN(C(=O)c1ccc(NC(=O)c3ccccc3F)cc1)c1ccccc1C2 (stereo not shown) [Compound 8] | inhibition at 0.1 µM (V1b; @ 0.1 μM, read-out: Receptor Binding V1b (% Inh. @ concentration in μM)): 41%
8 |  |  | 0.003 |  | (S)-4-(2-fluorophenylbenzoyl-4-aminobenzoyl)-3′-(2-(N,N-dimethylaminoethylaminocarbonyl))-4-aza-[6,4]-spiro-[5,6]-benzoundec-2′-ene [Compound 22] | Receptor Binding V1b (% Inh. @ concentration in μM) (V1b; @ 10 μM): 17% @ 10; Receptor Binding V2 (% Inh. @ concentration in μM) (human V2 receptor; @ 0.1 μM): 15% @ 0.1
